Results as given in patent publication US20030215899A1, “Reversible oxidation of protein tyrosine phosphatases” (CEPTYR, Inc., priority 2002, published 2003).
Entries after “also recorded” stand apart in the source; their conditions may differ.

Tests used:
SHP-2 (E76A mutant) = SHP-2 (E76A mutant) (Homo sapiens, UniProt Q06124, E76A); type: biochemical; details: for protection of SHP-2 from alkylation by IAA: 37° C. 5 mins, then 4 mM IAA
[1] = system: intracellular ROS in Rat-1 cells; test: ROS-induced DCF fluorescence (microscopy, flow cytometry); type: cell-based; details: for DCF fluorescence by fluorescence microscopy: 20 μM H2DCFDA preload, 200 μM, 5 mins; for shift of DCF fluorescence by flow cytometry, H2O2 versus t-BHP: 200 μM each
Method: The effects of H2O2 and t-BHP on inactivation of PTPs and activation of MAPK signaling pathways were next compared in a cellular context. Intracellular ROS were measured using 2′,7′-dichlorofluorescein diacetate (H2DCFDA) and 5-(and-6)-chloromethyl-2′,7′-dichlorodihydrofluorescein diacetate (CM-H2DCFDA) (all fluorescent ROS indicators from Molecular Probes, Eugene, Oreg.) either by fluorescence microscopy, using a Zeiss Axiovert 405M inverted microscope equipped with a fluorescence attachment and digital camera, or by cell sorting, using a FACSCalibur System ([…].), according to the manufacturer's recommendations. Rat-1 cells were pre-loaded with 20 μM H2DCFDA in the dark for 20 mins, then exposed to H2O2 and t-BHP (both 200 μM) for 5 mins. Images of ROS-induced DCF fluorescence are shown at magnification 400× (FIG. 3B upper panel). Cells (1×10^5) that underwent the same treatment as above were harvested and resuspended in Hanks' solution, then immediately subjected to flow cytometric analysis to measure ROS-induced DCF fluorescence. The basal peak indicates background fluorescence, whereas the rightward shifted peak indicates ROS-induced DCF fluorescence (FIG. 3B, lower panels). […] Cells were exposed to H2O2 and t-BHP (each at 200 μM) for the indicated times, lysed in the presence of 10 mM IAA and oxidized PTPs were visualized in the in-gel PTP activity assay.
Rat-1 cells were incubated with 20 μM CM-H2DCFDA in the dark for 20 mins, then exposed to peptide growth factors (50 ng/ml) for an additional 10 mins. Images of ROS-induced DCF fluorescence are shown at 50× magnification. (FIG. 6A) The data are representative of 4 independent experiments. In FIG. 6B, Rat-1 cells were exposed to peptide growth factors for the indicated times, lysed in the presence of 10 mM IAA, and oxidized PTPs were visualized by the in-gel PTP assay. […] Aliquots of cell lysate from each treatment group were immunoblotted with anti-phospho-MAPK Ab and re-probed with anti-MAPK Ab.

PTPs in Rat-1 cells = test: modified in-gel PTP activity assay of Rat-1 cell lysates; type: cell-based; details: for inactivation (oxidation) of PTPs in cells: 200 μM
Text: (§1) To determine whether ROS stimulated intracellular tyrosine phosphorylation through the oxidation and inhibition of cellular PTPs, a modified in-gel PTP activity assay was devised, as follows: As substrate, poly (4:1) Glu-Tyr (Sigma) was labeled with [γ-^32P]-ATP using the GST-FER fusion PTK, as described previously (Shen et al., 1998 J. Biol. Chem. 273:6474-81). The labeled substrates were used within three weeks to limit the variation of its specific activity from experiment to experiment. The lysis buffer (25 mM CH3COONa, 1% NP-40, 150 mM NaCl, 10% glycerol, pH 5.5) was degassed at 4° C. for overnight, before catalase and superoxide dismutase (both 100 μg/ml), protease inhibitors and 10 mM iodoacetic acid (IAA) were added. Following stimulation, cells were lysed under anaerobic conditions in an argon chamber. Lysates (25 μg) were processed as described herein and an “in-gel” phosphatase assay (Burridge and Nelson, 1995) was conducted using SDS-PAGE gels containing a radioactively-labeled substrate (1.5×10^6 cpm/20 ml gel solution, approximately 2 μM p-Tyr).
(§2) Cells were triggered with the appropriate stimulus and harvested under anaerobic conditions in lysis buffer containing IAA. Those PTPs that had not encountered ROS in the cell became irreversibly inactivated by alkylation of their active site Cys with IAA. However, in contrast, any PTPs in which the active site Cys had been oxidized in response to the stimulus were resistant to alkylation. For the “in-gel” phosphatase assay, a 10% SDS-PAGE gel was cast containing a radioactively-labeled substrate. An aliquot of cell lysate was subjected to SDS-PAGE and proteins in the gel were sequentially denatured, then renatured in the presence of reducing reagents. […] The reaction was then terminated by fixing, staining and destaining the gel. Finally the gel was dried and exposed to film. The presence of a PTP was visualized by substrate dephosphorylation, as the appearance of a clear, white area on the black background of labeled substrate.

MAPK = test: anti-phospho-MAPK / anti-MAPK immunoblot; type: cell-based, Rat; details: for activation of MAPKs (mitogenic signaling): 200 μM
Method: (§3) For immunoprecipitation, cells were rinsed with ice-cold PBS, then lysed in ice-cold 20 mM Hepes (pH 7.5), 1% NP-40, 150 mM NaCl, 10% glycerol, 200 μM […] and protease inhibitors (25 μg/ml of aprotinin and leupeptin). […] The anti-pTyr antibody G104 was described previously (Garton et al., 1997 Oncogene 15, 877-885). Anti-PDGFRββ antibody (Ab-X) was a gift from Dr. Daniel DiMaio at Yale University (Irusta and DiMaio, 1998 EMBO J. 17, 6912-6923). Anti-human G-CSF receptor (G-CSFR) antibody was provided by Dr. Toshio Hirano at Osaka University, Japan (Fukada et al., 1996 Immunity 5, 449-460). Lysate (400 μg) was incubated with 5 μg of antibody conjugated to protein A/G-Sepharose (Amersham Pharmacia, Arlington Heights, Ill.) for 2 hours at 4° C. For immunoblotting, aliquots of total lysates (30 μg per sample) or immunoprecipitates were subjected to SDS-PAGE and transferred to nitrocellulose filters, which were incubated with appropriate primary and secondary antibodies and the specific signals were visualized by the ECL detection system (Amersham Pharmacia).

[2] = system: tyrosine phosphorylation of cellular proteins in Rat-1 cells; test: immunoprecipitation (PT-66) and anti-pTyr (G104) immunoblot of tyrosine phosphorylated proteins; type: cell-based; details: for tyrosine phosphorylation of cellular proteins: 200 μM
Method: as §3

70 kDa PTP (SHP-2) = target: T1, 70 kDa PTP (SHP-2) (Rattus norvegicus, UniProt P41499); test: modified in-gel PTP assay, growth factor stimulated Rat-1 cells; type: cell-based; details: 30 mM NAC 40 minutes before PDGF 50 ng/ml
T1 construct: endogenous in cells; host or cells: Rat-1 fibroblasts
T1 sequence (P41499 1-593): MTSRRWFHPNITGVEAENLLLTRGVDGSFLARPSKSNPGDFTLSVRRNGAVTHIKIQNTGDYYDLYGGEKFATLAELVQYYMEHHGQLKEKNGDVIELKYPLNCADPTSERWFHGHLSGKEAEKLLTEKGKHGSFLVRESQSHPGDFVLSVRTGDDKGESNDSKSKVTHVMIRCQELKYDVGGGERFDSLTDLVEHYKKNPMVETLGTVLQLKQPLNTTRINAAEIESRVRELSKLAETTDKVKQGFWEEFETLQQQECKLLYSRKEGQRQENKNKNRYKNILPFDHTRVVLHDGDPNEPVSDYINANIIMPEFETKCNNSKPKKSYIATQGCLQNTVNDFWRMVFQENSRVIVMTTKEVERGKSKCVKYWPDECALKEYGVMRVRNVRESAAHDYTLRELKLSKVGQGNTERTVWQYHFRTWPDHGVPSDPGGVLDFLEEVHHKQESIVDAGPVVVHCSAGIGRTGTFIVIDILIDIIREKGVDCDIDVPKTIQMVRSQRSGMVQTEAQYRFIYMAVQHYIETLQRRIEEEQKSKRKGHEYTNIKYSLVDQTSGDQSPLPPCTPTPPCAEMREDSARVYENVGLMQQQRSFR
Text: as §1, §2
As described above, treatment of Rat-1 cells with H2O2 led to inactivation of multiple PTPs (FIGS. 2-3). […] Lysates of PDGF-stimulated Rat-1 cells were then analyzed using the modified in-gel PTP activity assay described above. […] Serum-starved Rat-1 cells were exposed to 50 ng/ml PDGF-BB for the times indicated (FIG. 4A). Lysates were prepared in the presence of 10 mM IAA and subjected to the in-gel PTP assay. […] The result shown is representative of four independent experiments. Oxidation of this 70 kDa PTP was reversible, reaching a maximum at 5 minutes, followed by marked reduction, almost to basal levels, within 20 minutes of PDGF treatment (FIG. 4A).
Rat-1 cells, either untreated (−) or stimulated with 50 ng/ml PDGF (+), were harvested in lysis buffer containing 10 mM IAA.

PDGFR = PDGFR immunoprecipitation (Ab-X) and anti-pTyr immunoblot; type: cell-based, Rat; details: 30 mM NAC 40 minutes before PDGF 50 ng/ml
Method: as §3
A possible role of oxidation/inactivation of the 70 k PTP in regulating PDGFR-mediated signaling was next investigated by testing the effects of the antioxidant NAC. Cells were incubated for 40 minutes in the presence or absence of 30 mM NAC prior to PDGF stimulation. Excess NAC was removed prior to addition of PDGF (50 ng/ml). […]

CC(C)(C)OO [t-BHP, t-butyl hydroperoxide]
protection of SHP-2 from alkylation by IAA (SHP-2 (E76A mutant)): did not protect the invariant Cys residue of SHP-2 from alkylation
oxidation and inactivation of SHP-2 in vitro (SHP-2 (E76A mutant); purified SHP-2 (E76A)): unable to oxidize and inactivate SHP-2
DCF fluorescence by fluorescence microscopy [1]: led to rapid oxidation and the appearance of the fluorescent derivative, DCF
shift of DCF fluorescence by flow cytometry, H2O2 versus t-BHP [1]: no quantitative difference was observed
inactivation (oxidation) of PTPs in cells (PTPs in Rat-1 cells; lysis with 10 mM IAA): not in response to t-BHP
activation of MAPKs (mitogenic signaling) (MAPK): unable to activate MAPKs
tyrosine phosphorylation of cellular proteins [2]: less pronounced effects on tyrosine phosphorylation

CCCCS(=N)(=O)CCC(N)C(=O)O [BSO, L-buthionine-SR-sulfoximine]
effect on recovery of PTP activity following removal of H2O2 (PTPs in Rat-1 cells; 2.5 mM BSO 16 h, 200 μM H2O2 for 2 minutes then removed): markedly attenuated the recovery of PTP activity
persistence of PTP oxidation after removal of H2O2 (PTPs in Rat-1 cells; BSO-pretreated Rat-1 cells): ≥ 30 min

OO [H2O2, hydrogen peroxide]
irreversible oxidation of SHP-2 (SHP-2 (E76A mutant); 2 mM H2O2): not irreversibly oxidized
protection of SHP-2 from alkylation by IAA (SHP-2 (E76A mutant)): protected SHP-2 from alkylation
DCF fluorescence by fluorescence microscopy [1]: led to rapid oxidation and the appearance of the fluorescent derivative, DCF
shift of DCF fluorescence by flow cytometry, H2O2 versus t-BHP [1]: no quantitative difference was observed
time to essentially complete recovery (reduction) of PTPs after removal of H2O2 (PTPs in Rat-1 cells; 200 μM H2O2 for 2 minutes, no BSO): 10 to 20 min
inactivation (oxidation) of PTPs in cells (PTPs in Rat-1 cells; lysis with 10 mM IAA): reproducible inactivation of PTPs was detected
H2O2 concentration sufficient to oxidize all PTPs detectable in the assay (PTPs in Rat-1 cells; 1 min exposure, serum-deprived Rat-1 cells): 200 µM
time to oxidation of active site Cys of various PTPs (PTPs in Rat-1 cells; H2O2 added to culture media, lysis with 10 mM IAA): ≤ 1 min
activation of MAPKs (mitogenic signaling) (MAPK): enhanced tyrosine phosphorylation and mitogenic signaling
phosphorylation of ERK MAP kinases (MAPK; H2O2-treated Rat-1 cells): triggered the phosphorylation of ERK MAP kinases
tyrosine phosphorylation of cellular proteins [2]: enhanced tyrosine phosphorylation
tyrosine phosphorylation of proteins of 120 kDa and 70 kDa ([2]; various concentrations of H2O2): induced in a dose-dependent fashion

CC(=O)N[C@@H](CS)C(=O)O [NAC, N-acetyl cysteine]
effect on H2O2-induced PTP oxidation and inactivation (PTPs in Rat-1 cells; 30 mM NAC preincubation 40 minutes, then 200 μM H2O2): blocked PTP oxidation and inactivation
effect on PDGF-induced activation of MAPKs (MAPK; 30 mM NAC 40 minutes before PDGF 50 ng/ml): completely eliminated
effect on PDGF-induced oxidation of the 70 k PTP (70 kDa PTP (SHP-2)): markedly attenuated; also recorded: impaired
effect on ligand-induced tyrosine phosphorylation of the PDGFR (PDGFR): greatly diminished
